Measurements reported in patent EP4603105A1, “PHARMACEUTICAL COMPOSITION CONTAINING CYCLIC COMPOUND HAVING SELECTIVE KRAS INHIBITORY EFFECT AGAINST HRAS AND NRAS” (CHUGAI SEIYAKU KABUSHIKI KAISHA, priority 2022, dated 2024).
Where a SMILES comes first, the peptide text is derived from it. Bridges are numbered along the chain shown (N, C = ends). [ ]: non-standard residue; d: D form. The star is where a group is joined. hPhe(3,5-F2-4-CF3) = N[C@@H](CCc1cc(F)c(C(F)(F)F)c(F)c1)C(=O)O; hPhe(3-Cl-4-CF3) = N[C@@H](CCc1ccc(C(F)(F)F)c(Cl)c1)C(=O)O; NPrPhe(4-CF3) = CCCN[C@@H](Cc1ccc(C(F)(F)F)cc1)C(=O)O; NPrPhe(4-Me) = CCCN[C@@H](Cc1ccc(C)cc1)C(=O)O; NMeGly(cPent) = CN[C@H](C(=O)O)C1CCCC1; Ac4c(3,3-F2) = NC1(C(=O)O)CC(F)(F)C1; NMeD = CN[C@@H](CC(=O)O)C(=O)O; NMeL = CN[C@@H](CC(C)C)C(=O)O; Morpholide = C1CN(*)CCO1; NMeA = CN[C@@H](C)C(=O)O; Piperidide = C1CCN(*)CC1; Ac5c = NC1(C(=O)O)CCCC1; Aze = O=C(O)[C@@H]1CCN1; NEtG = CCNCC(=O)O; Sar = CNCC(=O)O

Key:
HRAS wild-type protein = HRAS wild-type protein (Homo sapiens, UniProt P01112); test: Binding to HRAS by surface plasmon resonance (SPR), KD and KD ratio to KRAS
Procedure, shortened: (§1)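 SPR, 30°C: Avi-biotin RAS·GDP captured via Biotin CAPture (~100–300 RU); running buffer HBS pH 7.4, 1 mM DTT, 10 mM MgCl2, 0.01% Tween 20, 10 µM GDP, 4% DMSO. Single-cycle kinetics, 100 µL/min, 75 s injections; 1:1 model → KD.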

[1] = test system: human lung cancer strain NCI-H441; format: cell-based
Procedure, shortened: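 Proliferation was scored by […] measured after the reagent was added to cultures kept at 37°C in 5% carbon dioxide.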

[2] = target: GDP-bound NRAS wild-type protein (Homo sapiens, UniProt P01111); test: Binding to NRAS by surface plasmon resonance (SPR), KD and KD ratio to KRAS
Procedure, shortened: as §1

[3] = ratio of KD for HRAS wild-type protein to KD for KRAS
[4] = ratio of KD for GDP-bound NRAS wild-type protein to KD for KRAS
[5] = ratio of the KD value with respect to HRAS wild-type protein to the KD value with respect to KRAS
[6] = ratio of the KD value with respect to GDP-bound NRAS wild-type protein to the KD value with respect to KRAS
[7] = ratio of KD value for HRAS wild-type protein to KD value for KRAS (SPR)
[8] = ratio of KD value for GDP-bound NRAS wild-type protein to KD value for KRAS (SPR)

GDP-bound NRAS wild-type protein, sequence (P01111 whole entry): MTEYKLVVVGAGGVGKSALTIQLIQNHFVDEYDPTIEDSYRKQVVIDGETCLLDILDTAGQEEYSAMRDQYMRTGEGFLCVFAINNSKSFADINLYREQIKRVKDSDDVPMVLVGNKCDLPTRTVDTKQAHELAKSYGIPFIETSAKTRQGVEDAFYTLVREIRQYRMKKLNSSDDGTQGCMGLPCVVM
HRAS wild-type protein, sequence (P01112 whole entry): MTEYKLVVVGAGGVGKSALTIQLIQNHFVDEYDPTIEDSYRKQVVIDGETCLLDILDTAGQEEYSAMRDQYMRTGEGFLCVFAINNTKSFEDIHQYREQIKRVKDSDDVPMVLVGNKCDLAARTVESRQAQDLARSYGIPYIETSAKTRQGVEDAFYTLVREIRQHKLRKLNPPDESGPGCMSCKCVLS

Row | SMILES | HRAS /KRAS (HRAS wild-type protein; [3]) | IC50 [1] [nM] | NRAS /KRAS [2, 4] | HRAS /KRAS (HRAS wild-type protein; [5]) | NRAS /KRAS [2, 6] | HRAS /KRAS (HRAS wild-type protein; [7]) | NRAS /KRAS [2, 8]
1 | CCCN1C(=O)CN(CC)C(=O)CN(C)C(=O)[C@H]([C@@H](C)CC)NC(=O)[C@H](CC(C)C)N(C)C(=O)C[C@@H](C(=O)N2CCOCC2)N(C)C(=O)[C@H](C2CCCC2)N(C)C(=O)C2(CCCC2)NC(=O)[C@@H]2CCCN2C(=O)[C@H](CCc2ccc(C(F)(F)F)c(Cl)c2)NC(=O)CN(C)C(=O)[C@@H]1Cc1ccc(C)cc1 [PP0065] ([NMeL]I[Sar][NEtG][NPrPhe(4-Me)][Sar][hPhe(3-Cl-4-CF3)]P[Ac5c][NMeGly(cPent)][NMeD]-Morpholide; lactam N-11) | C (A compound having a KD ratio of 0.1 or more and less than 3 is denoted as C) | 4.3 | C (A compound having a KD ratio of 0.1 or more and less than 3 is denoted as C) | – | – | – | –
2 | CCCN1C(=O)[C@@H]2CCN2C(=O)[C@H](C)N(C)C(=O)[C@H]([C@@H](C)CC)NC(=O)[C@H](CC(C)C)N(C)C(=O)C[C@@H](C(=O)N2CCCCC2)N(C)C(=O)[C@H](C2CCCC2)N(C)C(=O)C2(CCCC2)NC(=O)[C@@H]2CCCN2C(=O)[C@H](CCc2ccc(C(F)(F)F)c(Cl)c2)NC(=O)CN(C)C(=O)[C@@H]1Cc1ccc(C(F)(F)F)cc1 [PP0180] ([NMeL]I[NMeA][Aze][NPrPhe(4-CF3)][Sar][hPhe(3-Cl-4-CF3)]P[Ac5c][NMeGly(cPent)][NMeD]-Piperidide; lactam N-11) | C (A compound having a KD ratio of 0.1 or more and less than 3 is denoted as C) | 7.5 | C (A compound having a KD ratio of 0.1 or more and less than 3 is denoted as C) | – | – | – | –
3 | CCCO[C@@H]1C[C@H]2C(=O)NC3(CC(C)(C)C3)C(=O)N(C)[C@@H](C3CCCC3)C(=O)N(C)[C@H](C(=O)N(C)C)CC(=O)N(C)[C@H]3CCCCc4ccc(cc4)C[C@@H](C(=O)N(C)CC(=O)N[C@@H](CCc4ccc(Cl)c(Cl)c4)C(=O)N2C1)N1CC/C=C\C[C@@H](C1=O)N(C)C(=O)CN(C)C(=O)[C@H]([C@@H](C)CC)NC3=O [PP3092] | A (a compound having 10 or more and less than 20 is denoted as A) | 7.4 | A (a compound having 10 or more and less than 20 is denoted as A) | – | – | – | –
4 | CCO[C@@H]1C[C@H]2C(=O)NC3(CC(C)(C)C3)C(=O)N(C)[C@@H](C(CC)CC)C(=O)N(C)[C@H](C(=O)N(C)C)CC(=O)N(C)[C@@H](C)C(=O)N[C@@H]([C@@H](C)CC)C(=O)N(C)CC(=O)N(C)[C@H]3C/C=C\CCN(C3=O)[C@@H](Cc3ccc(C)cc3)C(=O)N(C)CC(=O)N[C@@H](CCc3cc(F)c(C(F)(F)F)c(F)c3)C(=O)N2C1 [PP2143] | – | 6.6 | – | A (a compound having 10 or more and less than 20 is denoted as A) | A (a compound having 10 or more and less than 20 is denoted as A) | – | –
5 | CCC[C@H]1C(=O)N[C@@H]([C@@H](C)CC)C(=O)N(C)CC(=O)N(C)[C@H]2C/C=C\CCN(C2=O)[C@@H](Cc2ccc(C)cc2)C(=O)N(C)CC(=O)N[C@@H](CCc2ccc3sc(F)c(C)c3c2)C(=O)N2C[C@H](OCC)C[C@H]2C(=O)NC2(CC(C)(C)C2)C(=O)N(C)[C@@H](C(CC)CC)C(=O)N(C)[C@H](C(=O)N(C)C)CC(=O)N1C [PP2894] | A (a compound having 10 or more and less than 20 is denoted as A) | 9.6 | AA (a compound having 20 or more is denoted as AA) | – | – | – | –
6 | CCC[C@H]1C(=O)N[C@@H]([C@@H](C)CC)C(=O)N(C)CC(=O)N(C)[C@H]2C/C=C\CCN(C2=O)[C@@H](Cc2ccc(C)cc2)C(=O)N(C)CC(=O)N[C@@H](CCc2ccc3c(C)c(C)n(C)c3c2)C(=O)N2C[C@H](OCC)C[C@H]2C(=O)NC2(CC(C)(C)C2)C(=O)N(C)[C@@H](C2CCCC2)C(=O)N(C)[C@H](C(=O)N(C)C)CC(=O)N1C [PP2895] | A (a compound having 10 or more and less than 20 is denoted as A) | 59 | A (a compound having 10 or more and less than 20 is denoted as A) | – | – | – | –
7 | CCO[C@@H]1C[C@H]2C(=O)NC3(CC(C)(C)C3)C(=O)N(C)[C@@H](C(CC)CC)C(=O)N(C)[C@H](C(=O)N(C)C)CC(=O)N(C)[C@@H](CC(C)C)C(=O)N[C@@H]([C@@H](C)CC)C(=O)N(C)CC(=O)N(C)[C@H]3C/C=C\CCN(C3=O)[C@@H](Cc3ccc(C(F)(F)F)cc3)C(=O)N(C)CC(=O)N[C@@H](CCc3cc(F)c(C(F)(F)F)c(F)c3)C(=O)N2C1 [PP2127] | – | 12.5 | – | A (a compound having 10 or more and less than 20 is denoted as A) | AA (a compound having 20 or more is denoted as AA) | – | –
8 | CCO[C@@H]1C[C@H]2C(=O)NC3(CC(C)(C)C3)C(=O)N(C)[C@@H](C3CCCC3)C(=O)N(C)[C@H](C(=O)N(CC)CC)CC(=O)N(C)[C@@H](CC)C(=O)N[C@@H]([C@@H](C)CC)C(=O)N(C)CC(=O)N(C)[C@H]3C/C=C\CCN(C3=O)[C@@H](Cc3ccc(C)cc3)C(=O)N(C)CC(=O)N[C@@H](CCc3ccc(C(F)(F)F)c(Cl)c3)C(=O)N2C1 [PP1883] | – | 24 | – | – | – | A (a compound having 10 or more and less than 20 is denoted as A) | A (a compound having 10 or more and less than 20 is denoted as A)
9 | CCO[C@@H]1C[C@H]2C(=O)NC3(CC(C)(C)C3)C(=O)N(C)[C@@H](C3CCCC3)C(=O)N(C)[C@H](C(=O)N(C)CC)CC(=O)N(C)[C@@H](CC3CC3)C(=O)N[C@@H]([C@@H](C)CC)C(=O)N(C)CC(=O)N(C)[C@H]3C/C=C\CCN(C3=O)[C@@H](Cc3ccc(C(F)(F)F)cc3)C(=O)N(C)CC(=O)N[C@@H](CCc3cc(F)c(C(F)(F)F)c(F)c3)C(=O)N2C1 [PP1648] | – | 2.1 | – | – | – | A (a compound having 10 or more and less than 20 is denoted as A) | A (a compound having 10 or more and less than 20 is denoted as A)
10 | CCCN1C(=O)CN(C)C(=O)CN(C)C(=O)[C@H]([C@@H](C)CC)NC(=O)[C@H](CC(C)C)N(C)C(=O)C[C@@H](C(=O)N2CCOCC2)N(C)C(=O)[C@H](C2CCCC2)N(C)C(=O)C2(CC(F)(F)C2)NC(=O)[C@@H]2CCCN2C(=O)[C@H](CCc2cc(F)c(C(F)(F)F)c(F)c2)NC(=O)CN(C)C(=O)[C@@H]1Cc1ccc(C(F)(F)F)cc1 [PP0766] ([NMeL]I[Sar][Sar][NPrPhe(4-CF3)][Sar][hPhe(3,5-F2-4-CF3)]P[Ac4c(3,3-F2)][NMeGly(cPent)][NMeD]-Morpholide; lactam N-11) | B (a compound having 3 or more and less than 10 is denoted as B) | 8.7 | B (a compound having 3 or more and less than 10 is denoted as B) | – | – | – | –
11 | CCO[C@@H]1C[C@H]2C(=O)NC3(CCC3)C(=O)N(C)[C@@H](C3CCCC3)C(=O)N(C)[C@H](C(=O)N(C)C)CC(=O)N(C)[C@@H](CC)C(=O)N[C@@H]([C@@H](C)CC)C(=O)N(C)CC(=O)N(C)[C@H]3CCCCCN(C3=O)[C@@H](Cc3ccc(C(F)(F)F)cc3)C(=O)N(C)CC(=O)N[C@@H](CCc3c(F)c(F)c(C(F)(F)F)c(F)c3F)C(=O)N2C1 [PP0891] | B (a compound having 3 or more and less than 10 is denoted as B) | 154 | B (a compound having 3 or more and less than 10 is denoted as B) | – | – | – | –
12 | CCO[C@@H]1C[C@H]2C(=O)NC3(CC(C)(C)C3)C(=O)N(C)[C@@H](C3CCCC3)C(=O)N(C)[C@H](C(=O)N(C)C)CC(=O)N(C)[C@H]3CCCC/C=C/c4ccc(cc4)C[C@@H](C(=O)N(C)CC(=O)N[C@@H](CCc4cc(F)c(C(F)(F)F)c(F)c4)C(=O)N2C1)N1CC/C=C\C[C@@H](C1=O)N(C)C(=O)CN(C)C(=O)[C@H]([C@@H](C)CC)NC3=O [PP1831] | – | 3 | – | – | – | A (a compound having 10 or more and less than 20 is denoted as A) | A (a compound having 10 or more and less than 20 is denoted as A)
13 | CCCN1C(=O)CN(C)C(=O)CN(CC)C(=O)[C@H]([C@@H](C)CC)NC(=O)[C@H](CC(C)C)N(C)C(=O)C[C@@H](C(=O)N2CCOCC2)N(C)C(=O)[C@H](C2CCCC2)N(C)C(=O)C2(CCCC2)NC(=O)[C@@H]2CCCN2C(=O)[C@H](CCc2ccc(C(F)(F)F)c(Cl)c2)NC(=O)CN(C)C(=O)[C@@H]1Cc1ccc(C(F)(F)F)cc1 [PP0145] ([NMeL]I[NEtG][Sar][NPrPhe(4-CF3)][Sar][hPhe(3-Cl-4-CF3)]P[Ac5c][NMeGly(cPent)][NMeD]-Morpholide; lactam N-11) | B (a compound having 3 or more and less than 10 is denoted as B) | 8.8 | B (a compound having 3 or more and less than 10 is denoted as B) | – | – | – | –
14 | CCO[C@@H]1C[C@H]2C(=O)NC3(CCC3)C(=O)N(C)[C@@H](C3CCCC3)C(=O)N(C)[C@H](C)CC(=O)N(C)[C@@H](CC3CC3)C(=O)N[C@@H]([C@@H](C)CC)C(=O)N(C)CC(=O)N(C)[C@H]3C/C=C\CCN(C3=O)[C@@H](Cc3ccc(F)cc3)C(=O)N(C)CC(=O)N[C@@H](CCc3cc(F)c(C(F)(F)F)c(F)c3)C(=O)N2C1 [PP1490] | – | 48.9 | – | – | – | B (a compound having 3 or more and less than 10 is denoted as B) | B (a compound having 3 or more and less than 10 is denoted as B)
15 | CCO[C@@H]1C[C@H]2C(=O)NC3(CC(C)(C)C3)C(=O)N(C)[C@@H](C(CC)CC)C(=O)N(C)[C@H](C(=O)N(C)C)CC(=O)N(C)[C@@H](CC3CCC3)C(=O)N[C@@H]([C@@H](C)CC)C(=O)N(C)CC(=O)N(C)[C@H]3C/C=C\CCN(C3=O)[C@@H](Cc3ccc(C)cc3)C(=O)N(C)CC(=O)N[C@@H](CCc3ccc(Cl)c(Cl)c3)C(=O)N2C1 [PP2120] | – | 75.5 | – | A (a compound having 10 or more and less than 20 is denoted as A) | AA (a compound having 20 or more is denoted as AA) | – | –
